Values joined by “and” are separate entries in the source; they are usually repeats but may differ in a detail not shown here. Equal entries are not always repeated. Values belong to the molecule of their own block, whether it stands above or below them.
Key:
[1] = test system: monoglyceride lipase; experiment: Substrate specificity of the monoglyceride lipase (enzymatic activity assay, glycerol formed); type: biochemical, Bacillus stearothermophilus H-165; details: for Glycerol hydrolyzed from substrate in the presence of the monoglyceride lipase: diglyceride or triglyceride used as substrate; for Activity of lipase (%): relative activity of monoglyceride lipase on the substrate, Monolaurin 100.0
Protocol: (8) Substrate specificity: The substrate specificity of the monoglyceride lipase in this invention is investigated under conditions where the below-described assay method of enzymatic activity for the monoglyceride lipase is conducted.
MEASUREMENT METHOD OF ENZYMATIC ACTIVITY OF MONOGLYCERIDE LIPASE
(§1) To 0.4 ml of a solution of the above composition, is added 50 μl of 10 mM monolaurin (0.5 % aqueous solution of "Triton X-100"). The resultant mixture is pre-incubated at 37° C. for 2-3 minutes and 50 μl of an enzyme solution is added to initiate a reaction. Exactly 10 minutes later, 2.5 ml of 5 % SDS (sodium dodecyl sulfate) is added to terminate the reaction. The absorbance is measured at 550 nm. Regarding the enzymatic activity, the activity capable of producing 1 μmole of glycerol per minute is defined at 1 Unit (1 U). The following equation is used for calculation of enzymatic activity (potency): [formula] wherein ΔA 550: Absorbance at the wavelength of 550 nm

[2] = test system: monoglyceride lipase; experiment: Effects of surface active agents and metal ions on the monoglyceride lipase; type: biochemical, Bacillus stearothermophilus H-165; details: for Effect of added reagent on monoglyceride lipase activity: Table 2; for Activity of lipase (%): no reagent 100
Protocol: The mon[…] is not affected by the addition of divalent metal ions such as Ca^++ and Mg^++.
MEASUREMENT METHOD OF ENZYMATIC ACTIVITY OF MON[…]
as §1

[3] = test system: Pancreatic lipase and the monoglyceride lipase; experiment: Glycerol liberated from α,β-diglyceride substrates by pancreatic lipase plus monoglyceride lipase; type: biochemical; details: pancreatic lipase and monoglyceride lipase applied
Description: (2) Substrate specificity of the monoglyceride lipase upon use of α,β-diglyceride as a substrate:
(§2) (i) Pancreatic lipase and the monoglyceride lipase are applied to the below-described α,β-diglyceride substrates. Their α-positions are hydrolyzed by the pancreatic lipase and then the resulting β-monoglycerides are allowed to react with the monoglyceride lipase, in order to analyze glycerol thus liberated. Glycerol is detected with respect to the substrates, namely,α-oleyl-β-palmitoyldiglyceride, α-palmitoly-β-oleolyldiglyceride and α,β-dilinoleylglyceride. However, glycerol is not detected when only pancreatic lipase is used.

[4] = biological target: T1, pancreatic lipase (Sus scrofa, UniProt P00591); experiment: Glycerol liberated from α,β-diglyceride substrates by pancreatic lipase only; type: biochemical; details: only pancreatic lipase used
T1 sequence (P00591 1-450): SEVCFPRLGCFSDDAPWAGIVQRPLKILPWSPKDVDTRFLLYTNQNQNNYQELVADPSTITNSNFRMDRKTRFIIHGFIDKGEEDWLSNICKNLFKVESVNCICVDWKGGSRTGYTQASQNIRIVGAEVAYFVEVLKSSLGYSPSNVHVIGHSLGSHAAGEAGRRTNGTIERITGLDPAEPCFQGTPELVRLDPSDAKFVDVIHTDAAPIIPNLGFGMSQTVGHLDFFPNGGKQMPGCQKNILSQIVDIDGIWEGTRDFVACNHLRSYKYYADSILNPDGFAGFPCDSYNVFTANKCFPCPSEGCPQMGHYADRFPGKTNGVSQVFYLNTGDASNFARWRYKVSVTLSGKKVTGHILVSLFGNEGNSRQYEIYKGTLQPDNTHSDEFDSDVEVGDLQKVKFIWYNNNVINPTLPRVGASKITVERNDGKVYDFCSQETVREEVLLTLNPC
Description: as §2

[5] = reagent concentration 1 mM, 10 min

Glycerol hydrolyzed from substrate in the presence of the monoglyceride lipase [1]: no glycerol hydrolyzed is detected
Activity of lipase (%) [1]: 0%
SMILES: CCCCC/C=C\C/C=C\CCCCCCCC(=O)OCC(CO)OC(=O)CCCCCCC/C=C\C/C=C\CCCCC (stereo not drawn) [1,2-dilinolein]

Glycerol hydrolyzed from substrate in the presence of the monoglyceride lipase [1]: no glycerol hydrolyzed is detected
Activity of lipase (%) [1]: 0%
SMILES: CCCCC/C=C\C/C=C\CCCCCCCC(=O)OCC(O)COC(=O)CCCCCCC/C=C\C/C=C\CCCCC [1,3-dilinolein]

SMILES: [Ca+2].[Cl-].[Cl-] [CaCl2, calcium chloride]
Effect of added reagent on monoglyceride lipase activity [2]: not affected
Activity of lipase (%) [2, 5]: 100.0%

SMILES: C[C@H](CCC(=O)O)[C@H]1CC[C@H]2[C@@H]3[C@H](O)C[C@@H]4C[C@H](O)CC[C@]4(C)[C@H]3C[C@H](O)[C@]12C [Cholic acid]
Effect of added reagent on monoglyceride lipase activity [2]: inhibition of the activity is observed in the high concentration range
Activity of lipase (%) [2, 5]: 100.0%
Activity of lipase (%) ([2]; reagent concentration 10 mM): 92.6%

Activity of lipase (%) [2, 5]: 86.0%
SMILES: O=C(O)CN(CCN(CC(=O)O)CC(=O)O)CC(=O)O [EDTA]

SMILES: [Cl-].[Cl-].[Mg+2] [MgCl2, magnesium chloride]
Effect of added reagent on monoglyceride lipase activity [2]: not affected
Activity of lipase (%) [2, 5]: 100.0%

Activity of lipase (%) [1]: 10.1%
SMILES: CC(=O)OCC(O)CO (stereo not drawn) [Monoacetin]

Activity of lipase (%) [1]: 47.1%
SMILES: CCCC(=O)OCC(O)CO (stereo not drawn) [Monobutyrin]

Activity of lipase (%) [1]: 89.1%
SMILES: CCCCCCCCCC(=O)OCC(O)CO (stereo not drawn) [Monocaprin]

SMILES: CCCCCCCCCCCC(=O)OCC(O)CO (stereo not drawn) [Monolaurin]
Activity of lipase (%) [1]: 100.0%

Activity of lipase (%) [1]: 85.7%
SMILES: CCCCCCCCCCCCCC(=O)OCC(O)CO (stereo not drawn) [Monomyristin]

SMILES: CCCCCCCC/C=C\CCCCCCCC(=O)OCC(O)CO (stereo not drawn) [Monoolein]
Activity of lipase (%) [1]: 56.3% and 75.6%

Activity of lipase (%) [1]: 39.5%
SMILES: CCCCCCCCCCCCCCCC(=O)OCC(O)CO (stereo not drawn) [Monopalmitin]

SMILES: CCCCCCCCCCCCCCCCCC(=O)OCC(O)CO (stereo not drawn) [Monostearin]
Activity of lipase (%) [1]: 27.6%

Activity of lipase (%) [1]: 0%
SMILES: CC(=O)OCC(COC(C)=O)OC(C)=O [Triacetin]

Activity of lipase (%) [1]: 0%
SMILES: CCCC(=O)OCC(COC(=O)CCC)OC(=O)CCC [Tributyrin]

SMILES: CCCCCCCC/C=C\CCCCCCCC(=O)OCC(COC(=O)CCCCCCC/C=C\CCCCCCCC)OC(=O)CCCCCCC/C=C\CCCCCCCC [Triolein]
Glycerol hydrolyzed from substrate in the presence of the monoglyceride lipase [1]: no glycerol hydrolyzed is detected
Activity of lipase (%) [1]: 0%

Glycerol liberated [3]: detected
Glycerol liberated [4]: not detected
SMILES: CCCCC/C=C\C/C=C\CCCCCCCC(=O)OCC(CO)OC(=O)CCCCCCC/C=C\C/C=C\CCCCC (stereo not drawn) [α,β-dilinoleylglyceride]

Glycerol liberated [3]: detected
Glycerol liberated [4]: not detected
SMILES: CCCCCCCC/C=C\CCCCCCCC(=O)OCC(CO)OC(=O)CCCCCCCCCCCCCCC (stereo not drawn) [α-oleyl-β-palmitoyldiglyceride]

Glycerol liberated [3]: detected
Glycerol liberated [4]: not detected
SMILES: CCCCCCCC/C=C\CCCCCCCC(=O)OC(CO)COC(=O)CCCCCCCCCCCCCCC (stereo not drawn) [α-palmitoly-β-oleolyldiglyceride]

From patent US5126246A, “Reagent for analysis of triglycerides and analysis using the same” (priority 1988, dated 1992)
